Assay [1] can be described thus: Antiplatelet aggregation activity in rabbit platelet assessed as reduction in ADP-induced platelet aggregation. Format: functional, cell-based. The conditions noted are these: Oryctolagus cuniculus.
The subject of assay [2] is Plasma. Briefly: Antiplatelet aggregation activity in rabbit plasma incubated for 5 mins. It is filed as functional, cell-free. The conditions noted are these: Oryctolagus cuniculus.
Assay [3] concerns Plasma. Kind of assay: Antiplatelet activity in plasma (unknown origin) assessed as reduction of ADP-induced platelet aggregation by aggregometer. Format: functional, cell-free. Conditions: Homo sapiens.
For assay [4], the system named is Plasma. Kind of assay: Antiplatelet activity in plasma (unknown origin) assessed as reduction of thrombin-induced platelet aggregation by aggregometer. Format: functional, cell-free. Conditions: Homo sapiens.
The test system of assay [5] is Plasma. Kind of assay: Antithrombotic activity in mouse plasma assessed as clotting time administered IV.
In a further assay the test system is Plasma (Mus musculus). Briefly: Anticoagulant activity in mouse plasma assessed as prothrombin time.
For assay [6], the system named is Plasma. Kind of assay: Antithrombotic activity in mouse plasma assessed as prothrombin time administered IV.
The subject of assay [7] is Plasma. Briefly: Anticoagulant activity in mouse plasma assessed inhibition of thrombin-induced platelet aggregation. It is filed as functional, cell-free.
The nature of assay [8]: Antiplatelet activity in platelet (unknown origin) assessed as inhibition of ADP-induced platelet aggregation relative to control. The conditions noted are these: for IC50: platelet. Format: functional, cell-based.
A further assay deals with P2Y purinoceptor 1 (Homo sapiens, UniProt P47900). Kind of assay: Antagonist activity at P2Y1 receptor (unknown origin). Format: functional.
Sequence of P2Y purinoceptor 1 (P47900 whole entry): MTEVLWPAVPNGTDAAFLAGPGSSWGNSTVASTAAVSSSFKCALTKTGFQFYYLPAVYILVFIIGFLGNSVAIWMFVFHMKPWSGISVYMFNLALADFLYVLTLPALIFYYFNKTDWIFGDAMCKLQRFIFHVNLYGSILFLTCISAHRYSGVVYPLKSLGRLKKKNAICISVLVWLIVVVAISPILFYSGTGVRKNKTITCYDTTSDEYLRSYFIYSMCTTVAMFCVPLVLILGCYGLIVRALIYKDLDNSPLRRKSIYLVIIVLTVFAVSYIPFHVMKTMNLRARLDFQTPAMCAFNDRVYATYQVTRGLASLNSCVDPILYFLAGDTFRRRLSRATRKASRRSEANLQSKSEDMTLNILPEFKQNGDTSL
Assay [9] deals with Plasma. Kind of assay: Anticoagulant activity in rabbit plasma assessed as prothrombin time. It is filed as functional, Oryctolagus cuniculus.
Assay [10] deals with Plasma. Kind of assay: Anticoagulant activity in rabbit plasma assessed as activated partial thromboplastin time. It is filed as functional, Oryctolagus cuniculus.
The subject of assay [11] is Plasma. Briefly: Anticoagulant activity in rabbit plasma assessed as thrombin time. It is filed as functional, Oryctolagus cuniculus.
Assay [12] is described as follows: Anticoagulant activity in human platelet assessed as reduction in thrombin-induced platelet aggregation in presence of ADP by measuring turbidity. Format: functional, cell-based.
For another assay, the target named is Coagulation factor X (Homo sapiens, UniProt P00742). Kind of assay: Binding affinity to FXa (unknown origin).
Sequence of Coagulation factor X (P00742 41-179 limits assumed): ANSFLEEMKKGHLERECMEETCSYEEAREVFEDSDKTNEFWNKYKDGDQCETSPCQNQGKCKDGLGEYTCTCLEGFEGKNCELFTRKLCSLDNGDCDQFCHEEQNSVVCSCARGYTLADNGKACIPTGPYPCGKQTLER
Sequence of Coagulation factor X (P00742 235-488 limits assumed): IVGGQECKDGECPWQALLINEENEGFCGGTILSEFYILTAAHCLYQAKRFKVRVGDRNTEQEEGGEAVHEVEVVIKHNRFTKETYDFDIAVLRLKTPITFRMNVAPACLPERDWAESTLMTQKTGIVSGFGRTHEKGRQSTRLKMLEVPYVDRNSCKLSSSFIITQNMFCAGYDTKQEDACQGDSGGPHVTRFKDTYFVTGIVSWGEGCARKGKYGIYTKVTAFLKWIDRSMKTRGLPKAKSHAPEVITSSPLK
Assay [13] in a line: Antithrombotic activity in fresh platelet rich plasma. It is filed as functional, cell-based.
In assay [14] the test system is Platelet. Kind of assay: Potency index ratio of IC50 for CCI-17810 to IC50 test compound against antiplatelet activity in platelet (unknown origin). It is filed as functional.
A further assay deals with Erythrocyte. Briefly: Anticoagulant activity in human RBC assessed as decrease in epinephrine induced platelet aggregation by measuring increased clotting time relative to control. Format: functional.
Assay [15] has as its system Plasma. Kind of assay: Antiplatelet activity in rabbit plasma assessed as inhibition of arachidonic acid induced platelet aggregation. It is filed as functional, cell-free. Conditions: Oryctolagus cuniculus.
Assay [16] can be described thus: Antiplatelet activity in human platelet. Format: functional, cell-based.
The species named for a further assay is Rattus norvegicus. Kind of assay: Antiplatelet aggregration activity in arteriovenous bypass thrombosis rat model assessed as aggregation inhibition rate relative to control. Format: functional.
For assay [17], the system named is Plasma. Kind of assay: Antithrombotic activity in rat plasma. It is filed as functional.
In assay [18] the test system is Platelet. Briefly: Potency index, ratio of IC50 for MCI-154 to IC50 for test compound against antiplatelet activity in human platelet. Format: functional.

SMILES strings stand for the structures. In brackets after ≈: the same amount, converted by molar mass.

For orientation: IC50 means the concentration needed to halve the response being measured. By Ki is commonly meant the dissociation constant of the complex between target and ligand, obtained from inhibition or displacement. Lower therefore signals tighter binding. The term ED50 denotes the dose that gives a 50% effect, or the effect in half of the subjects. A low value points to an effect at a small dose.

Consider `CCCCCCCCN1CCN(c2ccc(C3=NNC(=O)CC3)cc2)CC1`, for which, in assay [1], the IC50 amounted to 2500 nM. As for `CCN1C(=O)COc2cc(NC(=O)c3ccccc3)ccc21`, the IC50 in the assay on Plasma [2] stood at 8990 nM. Take `O=C(O)C(Cc1ccc2c(c1)OCC(COCC1CCNCC1)O2)NS(=O)(=O)c1ccccc1` (stereo not given): the IC50 worked out at 41700 nM in the assay with Plasma [3] and 22200 nM in the assay with Plasma [4]. Regarding `CC(=O)CC(c1ccccc1)c1c(O)c2ccccc2oc1=O` (stereo not given) [WARFARIN], the figures for the Time in the assay with Plasma [5], in the assay with Plasma (Mus musculus) and in the assay with Plasma [6] were 23.2 s, 7.97 s and 42.3 s, respectively. Turning to `CCOC(=O)CCN(C(=O)c1ccc2c(c1)nc1n2CCN(CC(=O)OCc2ccccc2)C1Cc1ccc(/C(N)=N/CC(=O)OCc2ccccc2)cc1)c1ccccc1` (stereo not given), the midpoint of inhibition with Plasma [7], the IC50, lay at 470 nM. As for `CC(C)[C@](O)(C(=O)OCC1=CCN2CC[C@@H](O)[C@@H]12)[C@H](C)O`, the figures for the 50% inhibitory concentration (IC50) in assay [8] and in assay [1] were 490 nM and 12500 nM, respectively.

The compound `CNc1ncnc2c1ncn2CC(COP(=O)(O)O)COP(=O)(O)O` showed an IC50 against P2Y purinoceptor 1 of 1090 nM.

`CNc1ncnc2c1ncn2CCC(COP(=O)(O)O)COP(=O)(O)O` returned a half-maximal inhibitory concentration (IC50) against P2Y purinoceptor 1 of 1600 nM. For the compound `COc1cc(O)c2c(=O)c(O)c(-c3ccc(O)c(O)c3)oc2c1` [RHAMNETIN], the Time was 72.6 s in the assay on Plasma [9], 6.8 s with Plasma [10] and 23 s in the assay with Plasma [11]. With `O=C(OCCOc1ccc2ccc(=O)oc2c1)c1ccccc1OCCOc1ccc2ccc(=O)oc2c1`, in the assay with Plasma (Mus musculus), the Time is reported as 10.88 s. For the compound `CN(C)C(=O)c1ccc(NC(=O)c2ccc(-n3ccccc3=O)cc2)c(NC(=O)c2ccc(Cl)c(Cl)c2)c1`, in the assay on Plasma [9], the Time worked out at 9.5 s. `Cn1c(CNc2ccc(C(=N)N)cc2)nc2cc(C(=O)N(CCC(=O)O)c3ccccn3)ccc21` [DABIGATRAN]: in the assay on Plasma [7], half-maximal inhibition (IC50) was put at 600 nM.

In turn, `CNc1nc(Cl)nc2c1ncn2CC(COP(=O)(O)O)COP(=O)(O)O` displayed a half-maximal inhibitory concentration (IC50) against P2Y purinoceptor 1 of 480 nM. Consider `Cc1cc(=O)oc2cc(OCCOc3ccccc3C(=O)OCCOc3ccc4ccc(=O)oc4c3)ccc12`, for which the Time in the assay on Plasma (Mus musculus) came to 13.1 s. Turning to `O=C1CNC(=O)C(Cc2c[nH]cn2)N1` (stereo not given), in [12], the IC50 was determined as 66000 nM. Take `COc1ccc(C(=O)Nc2ccccc2NC(=O)c2ccc(OC)cc2)cc1`: on Coagulation factor X, the inhibition constant (Ki) stood at 1000 nM. `O=C(O)CC1CCCCCCCCCNC(=O)OCOC(=O)C(Cc2ccccc2)NC1=O` (stereo not given) gave an IC50 in [13] of 400 nM.

In the assay with Plasma [7], `CCOC(=O)CCN(C(=O)c1ccc2c(c1)nc1n2CCN(CC(=O)OCC)C1Cc1ccc(/C(N)=N/CC(=O)OCC)cc1)c1ccccc1` (stereo not given) registered an IC50 of 320 nM. With `CCCN(CCC)CC(=O)N1CCN(c2ccc(C3=NNC(=O)CC3C)cc2)CC1` (stereo not given), the “Ratio IC50” value in the assay on Platelet [14] amounted to 60. Moreover, the IC50 in assay [8] came to 8 nM. Regarding `Cn1c(-c2ccc(Br)s2)nc2cc(-c3nnc(-c4cc(-c5cc(F)cc(F)c5)nc5ccccc45)o3)ccc21`, the “inhibition (INH)” value with Erythrocyte is recorded as 93.4%. On to `CC(=O)Oc1ccccc1C(=O)Nc1n[n+](-c2ccc(C)cc2)no1`, for which the “inhibition (INH)” value in assay [8] turned out to be 30.7%. `O=C(CC1CCCCCCCCCNC(=O)OCOC(=O)C(Cc2ccccc2)NC1=O)OCc1ccccc1` (stereo not given) displayed a concentration for half-maximal inhibition (IC50) in assay [13] of 200 nM.

`Cc1ccc2c(c1)NC(CC(=O)c1ccccc1)C(=O)O2` (stereo not given): the IC50 in the assay on Plasma [15] was 18 µg/mL (≈ 63.8 µM). Compound `O=C1CCC(c2ccc(Nc3ccncc3)cc2)=NN1` [SENAZODAN] showed an IC50 in assay [16] of 360 nM. Turning to `COc1cc(/C=C/C(=O)OC2COC3C(O[N+](=O)[O-])COC23)ccc1OC(=O)c1ccccc1OC(C)=O` (stereo not given), in the assay filed under Rattus norvegicus, the “inhibition (INH)” value is 28.7%. Compound `N#Cc1ccc(S[C@@H]2SC[C@@H](O)[C@H](O)[C@H]2O)cc1` [BECIPARCIL] displayed a median effective dose (ED50) with Plasma [17] of 25 mg/kg. In the assay with Plasma [7], `CCOC(=O)CCN(C(=O)c1ccc2c(c1)nc1n2CCN(CC(=O)OC(C)(C)C)C1Cc1ccc(/C(N)=N/CC(=O)OC(C)(C)C)cc1)c1ccccc1` (stereo not given) had an IC50 of 110 nM. Regarding `CCCN(CCC)CC(=O)Nc1ccc(C2=NNC(=O)CC2)cc1`, in the assay with Platelet [18], the “Ratio IC50” value is listed as 10. Besides, in [16], the IC50 stood at 30 nM. On to `COc1ccc(-c2oc3cc(O)cc(O)c3c(=O)c2O)cc1OC`, for which the Time in the assay with Plasma [9] came out at 58.7 s; with Plasma [10], 5.8 s; with Plasma [11], 9.9 s.

Take `CC(=O)Nc1ccc(C(=O)Nc2cc(C(N)=O)ccc2NC(=O)c2ccc(-n3ccccc3=O)cc2)cc1Cl`: the Time in the assay on Plasma [9] was 10.2 s.

Source of the values: ChEMBL document CHEMBL5126515, “Progress of thrombus formation and research on the structure-activity relationship for antithrombotic drugs” (Eur J Med Chem, 2022).
